No end group written: not given here.
What was measured:
[1] = Evaluation of reductase activity on a synthetic peptide (fluorescence de-quenching); type: biochemical; settings: peptide 25 μM, 2.5 μM (FITC-Gly-Cys-Asp)ox, PBS, 40 minutes, 25° C., fluorescence 530 nm
Experimental: The reductase activity of the peptides is determined using a fluorescent described in Tomazzolli et al. (2006) Anal. Biochem. 350, 105-112. Two peptides with a FITC label become self-quenching when they covalently attached to each other via a disulfide bridge. Upon reduction by a peptide in accordance with the present invention, the reduced individual peptides become fluorescent again.
Control experiments were performed with a peptide with a “normal” reducing peptide, i.e. a peptide with a redox motif but without additional histidine and with a peptide comprising no redox motif.
A FITC -NH-Gly-Cys-Asp-COOH peptide was synthesized (Eurogentec, Belgium) and self-quenched by solubilization in DMSO ((FITC-Gly-Cys-Asp)ox). The reduction of 2.5 μM (FITC-Gly-Cys-Asp)ox was followed on a 96 well plate during 40 minutes (25° C.) after incubation in PBS with peptide (25 μM) as listed in the accompanying table, or with 2 mM Dithiothreitol (DTT). Reduction was measured as a function of increase in fluorescence read at 530 nm after excitation at 494 nm, using a CytoFluor® multiplate reader (Applied Biosystems). Results are shown in the table of example 10 under the heading “Reductase activity”.

Human recombinant CD4 = Human recombinant CD4 (Homo sapiens, UniProt P01730); assay: Polymerization of human recombinant CD4 (non-reducing PAGE); type: biochemical; set-up: key: The Table indicates whether or not a polymerization had occurred (+); settings: 50 μM peptide, 300 ng recCD4, Hepes buffer, 15 minutes at 68° C.
Experimental: Fifty μM of DTT is used as a positive control under the same conditions. LDS sample buffer (7.5 μl; non-reducing) is then added to 15 μl of the peptide/CD4 mixture. The mixture is then submitted to non-reducing PAGE. After Coomassie Blue staining, protein bands are analyzed for the presence of monomeric, dimeric or multimeric recCD4, as identified by the decreased migratory capacities into the gel. The Table indicates whether or not a polymerization had occurred (+).

[2] = system: polyclonal CD4+CD25− cells obtained from animals in which EAE is effective; assay: Bystander suppression assay with T cell line from immunised mice; type: cell-based, C57BL/6 mice; settings: CD4+ T cell line from mice immunised 3 x 20 μg sc on aluminium hydroxide, after four re-stimulations
Experimental: Groups of C57BL/6 mice are immunised subcutaneously (20 μg) with the peptide of example 1 which contains the modified sequence motif [SEQ ID NO: 1] or control peptide [SEQ ID NO: 2, 4 or 7] adsorbed onto aluminium hydroxide. Three injections are performed at 2-week intervals. Ten days after the last immunisation, mice are sacrificed and CD4+ T cells (2×10^6 cells) are prepared from the spleen using magnetic beads. CD4+ T cells are then stimulated in vitro by the MOG T cell epitope (20 μg/ml) presented by adherent spleen cells (2×10^6 cells).
After four re-stimulations, a T cell line is tested in a bystander suppression assay with, as target cells, polyclonal CD4^+CD25^− cells obtained from animals in which EAE (Experimental autoimmune encephalomyelitis) is effective.

Substance	Reductase activity (%) [1]	CD4 polymerisation (Human recombinant CD4)	capacity to induce death in target cells [2]
H CPYCVRSLQPLALEGSLQKRG (HCPYCVRSLQPLALEGSLQKRG; proinsulin) [SEQ ID NO: 108]	68%	+	
HAACPYCVRSLQPLALEGSLQKRG (proinsulin) [SEQ ID NO: 109]	0%	+	
AAACPYCVRSLQPLALEGSLQKRG (proinsulin) [SEQ ID NO: 111, reference compound]	6%	+	
AAACHGCVRSLQPLALEGSLQKRG (proinsulin) [SEQ ID NO: 114, reference compound]	22%	low	
HCPYCSRVVHLYRNGKD [SEQ ID NO: 1]			have the capacity to induce death in target cells
AAACHPCVRSLQPLALEGSLQKRG (proinsulin) [SEQ ID NO: 112, reference compound]	75%	+	
AAHCHPCVRSLQPLALEGSLQKRG (proinsulin) [SEQ ID NO: 113]	64%	+	
AHACPYCVRSLQPLALEGSLQKRG (proinsulin) [SEQ ID NO: 110]	13%	+	
CPYCSRVVHLYRNGKD (CPYCSRVVHLYRNGKD-NH2; cysteine pairing not given here) [SEQ ID NO: 7, reference compound]			have the capacity to induce death in target cells
